Measured values reported in patent US20120148530A1, “Method for the treatment or prevention of virus infection using polybiguanide-based compounds” (Novaflux Biosciences, Inc., priority 2003, published 2012).

How the values were obtained:
HeLa cells = assay: HeLa cell viability, MTT, 2 hr exposure; format: cell-based
Description: HeLa cells (ATCC designation CCL-2) were maintained in Dulbecco's Modified Eagle's medium (DMEM). […] All three cell types were cultured in media supplemented with 10% fetal bovine serum (FBS), […] (0.3 mg/ml), antibiotics (penicillin, streptomycin, and kanamycin at 0.04 mg/ml each), and 0.05% sodium bicarbonate.
(§1) The experiments described below were conducted to determine the activity and cytotoxicity of short chain compounds having one or two biguanide groups. […] The efficacy determinations were made using P4R5 cells, which allow for the detection of bacterial β-galactosidase activity upon release of viral tat protein into the parent HeLa cell.

cell-free HIV-1 = assay: Cell-free HIV-1 infectivity in P4R5 cells, β-galactosidase readout; format: cell-based; details: 2 hr exposure of cells to compounds in the presence of virus
Description: as §1

HIV-1 IIIB [1] = assay: HIV-1 IIIB viral binding/entry inhibition in P4R5 cells; format: cell-based
Description: (§2) To build on the information provided by the monomeric biguanide data a series of polybiguanide molecules were synthesized with varied linker length as described in Example 1. In these molecules the methylene spacer arms between the biguanide functionalities (X and Y in Forumla I) have been changed.
Antiviral assays include a viral binding/entry assay in which reporter cells such as P4R5 are incubated with virus in the presence of compound for two hours at which time the drug is washed off and the cells incubated for 48 hrs before measuring the intracellular production of β-galactosidase (Ojwang et al. 1995 Antimicrobial Agents and Chemotherapy 39:2426-2435). In cell-associated virus inhibition (CAI) assays, HIV-1111B infected SUP T1 cells are pelleted to remove cell free virus and incubated with each compound for ten minutes at 37° C. before a 1:10 dilution in media and incubation with P4R5 indicator cells for 48 hours before measuring β-galactosidase activity. In cell-free virus assays HIV-1IIIB or BaL were incubated with each compound for 10 minutes at 37° C. before a 1:100 dilution in RPM! 1640, and incubated for 2 hours with P4R5 cells, and subsequent assays for viral infectivity were performed 48 hours later using the β-galactosidase method.
Select compounds were assessed for their ability to inhibit events necessary for HIV-1 binding and entry.
The same strategy was tested using PEHMB.

CXCR4 [2] = target: T1, CXCR4 (Homo sapiens, UniProt P61073); assay: FACS analysis of CXCR4 on P4-R5 cells; format: cell-based; details: BCD 0.3%
T1 construct: host or cells: P4-R5 (P4-CCR5) cells, HeLa-derived
Text: (§3) After a 2 hr exposure to PEHMB (0.1%), P4-R5 cell presentation of CXCR4 was reduced from 98% to 29% (FIG. 6).

P4R5 cells = assay: P4R5 cell viability, MTT
Text: as §2
As described above the effect of PEHMB and related compounds on P4R5 cell viability after a two-hour exposure to the compound was compared to the effects of control compounds such as N-9. […] To further evaluate the effect of this class of compound on various types of cells (in particular PEHMB P4-R5 cells, ME-180 cells (ATCC HTB-33; cervical epidermoid carcinoma), VK2/E6E7 human vaginal cell line (Fichorova et al. 1997 Biol. Reprod. 57:847-855), and human primary vaginal karatinocytes (isolated from tissues obtained from vaginal reconstructive surgery)) the compounds were incubated with the different cells for various lengths of time before assessment of cell viability.

CXCR4 [3] = target: T1, CXCR4; assay: FACS analysis of CXCR4 on PM-1 cells; format: cell-based; details: PEHMB 0.1%, BCD 0.3%, untreated 45%
Description: as §3
A similar experiment (FIG. 7) was performed using the PM-1 T lymphocyte cell line (Lusso et al. 1995 J. Virol 69:3712-3720). […] However, reductions in CD3 were not seen in response to compound exposure, indicating specificity of action with respect to PEHMB's impact on CXCR4 (data not shown).

HIV-1 IIIB [4] = assay: Modified viral binding inhibition assay: pre-treatment, wash, then HIV-1 IIIB challenge; format: cell-based; details: 0.1% or 0.01%
Description: In a modified viral binding inhibition assay (VBI) assay, HIV-1-susceptible P4R5 cells were maintained for 1 or 2 hr in the presence of PEHMB (0.1% and 0.01%) and then washed extensively before challenge with HIV-1 IIIB.
HIV-1-susceptible target cells were incubated with PEHMB (0.1%) for 2 hr, washed extensively with PBS, and subsequently challenged with HIV-1 IIIB at 0, 0.5, 1, 2, 3, and 4 hours after washing.

[5] = tested on: Primary vaginal keratinocytes; assay: Primary vaginal keratinocyte viability; format: cell-based, human
ME-180 cells = assay: ME-180 cell viability; format: cell-based
Vk2/E6E7 cells = assay: Vk2/E6E7 cell viability

T1 sequence (P61073 whole entry): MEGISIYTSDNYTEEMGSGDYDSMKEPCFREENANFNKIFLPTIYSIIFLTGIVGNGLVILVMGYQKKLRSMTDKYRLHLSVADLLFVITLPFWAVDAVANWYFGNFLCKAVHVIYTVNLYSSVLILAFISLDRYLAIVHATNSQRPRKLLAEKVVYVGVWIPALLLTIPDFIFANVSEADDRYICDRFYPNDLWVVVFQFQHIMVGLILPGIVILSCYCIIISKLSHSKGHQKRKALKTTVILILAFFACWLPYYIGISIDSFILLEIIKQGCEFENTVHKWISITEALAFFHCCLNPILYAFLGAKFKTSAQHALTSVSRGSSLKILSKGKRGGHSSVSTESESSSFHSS

[H]/N=C(/N)N/C(=N/[H])NCCc1ccccc1 [1-phenethyl biguanide]
CC50 (%) (HeLa cells): 0.538%

N=C(N)NC(=N)Nc1ccccc1 [1-phenyl biguanide]
IC50 (%) (cell-free HIV-1): 0.522%
CC50 (%) (HeLa cells): 0.150%

OC[C@H]1O[C@@H]2O[C@H]3[C@H](O)[C@@H](O)[C@@H](O[C@H]4[C@H](O)[C@@H](O)[C@@H](O[C@H]5[C@H](O)[C@@H](O)[C@@H](O[C@H]6[C@H](O)[C@@H](O)[C@@H](O[C@H]7[C@H](O)[C@@H](O)[C@@H](O[C@H]8[C@H](O)[C@@H](O)[C@@H](O[C@H]1[C@H](O)[C@H]2O)O[C@@H]8CO)O[C@@H]7CO)O[C@@H]6CO)O[C@@H]5CO)O[C@@H]4CO)O[C@@H]3CO [BCD, β-cyclodextrin]
remaining infectivity, % of mock-treated cells (HIV-1 IIIB [1]; PEHMB 0.1%, BCD 0.3%, HIV-1 strain IIIB): 27%
effect on CXCR4 (CXCR4 [2]): no apparent effect
cytotoxicity, FIG. 4A (P4R5 cells): non-cytotoxic
CXCR4 presentation (CXCR4 [3]): 22%

dextran sulfate
residual antiviral activity after removal of compound (HIV-1 IIIB [4]): no residual antiviral activity

nonoxynol-9 [N-9]
IC50 (HIV-1 IIIB [1]): 0.003%
IC50 (%) (HIV-1 IIIB [1]; P4R5 cells, 2 hr exposure in the presence of HIV-1IIIB, Table 6): 0.005%
IC50 (%) (HIV-1 IIIB [1]; Table 3): 0.005%
IC50 (%) (HIV-1 IIIB [1]; Table 5): 0.005%
IC50 (%) (cell-free HIV-1): 0.005%
CC50 (%) (HeLa cells): 0.007%
CC50 % 2 hr exposure [5]: 0.007%
CC50 (P4R5 cells; MTT): 0.003%
CC50 % 10 minute exposure (P4R5 cells; P4-R5 cells, 10 minute exposure): 0.2%
CC50 % 2 hr exposure (P4R5 cells; P4-R5 cells, 2 hr exposure): 0.008%
CC50 % 6 hr exposure (P4R5 cells; P4-R5 cells, 6 hr exposure): 0.005%
CC50 (%) (P4R5 cells; P4R5 cell data (2 hr exposure), Table 6): 0.005%
CC50 (%) (P4R5 cells; P4R5 cells, 2 hr exposure, MTT (Table 3)): 0.007%
CC50 (%) (P4R5 cells; Table 5): 0.007%
CC50 % 10 minute exposure (ME-180 cells; 10 minute exposure): 0.20%
CC50 % 2 hr exposure (ME-180 cells; 2 hr exposure): 0.008%
CC50 % 6 hr exposure (ME-180 cells; 6 hr exposure): 0.007%
CC50 % 10 minute exposure (Vk2/E6E7 cells; 10 minute exposure): 0.03%
CC50 % 2 hr exposure (Vk2/E6E7 cells; 2 hr exposure): 0.006%
CC50 % 6 hr exposure (Vk2/E6E7 cells; 6 hr exposure): 0.002%

xyleneylene bis-biguanide
CC50 (%) (HeLa cells): 0.385%
